# Literature values as cited in patent US7906154B2, “Compositions and methods for the induction and maintenance of quality sleep” (priority 2006, dated 2011).
# Where two headings read alike, the source gives them in different places.
smiles,measurement,setting,value
"COC1=C(OC)C(=O)C(C/C=C(\C)CC/C=C(\C)CC/C=C(\C)CC/C=C(\C)CC/C=C(\C)CC/C=C(\C)CC/C=C(\C)CC/C=C(\C)CC/C=C(\C)CCC=C(C)C)=C(C)C1=O [CoQ10, Coenzyme Q10]",subjects with a decrease in the sound level of their snoring,during non-REM sleep stages I/II,about 40%
same,subjects with a decrease in the sound level of their snoring,during non-REM sleep stages III/IV,about 33%
same,subjects with a decrease in the sound level of their snoring,during the REM stage of sleep,about 44%
